# Values joined by “and” are separate entries in the source; they are usually repeats but may differ in a detail not shown here. Equal values may be shown once. “Also recorded” adds a separate entry of the source.
# Columns and labels:
# wild‐type STAT4 = target: T1, wild‐type STAT4 (Homo sapiens, UniProt Q14765); test: Isothermal titration calorimetry (ITC), wild-type STAT4; format: binding; conditions: for Kd: ITC, 25 °C, one-site binding model, read-out: K d (ITC), wild-type STAT4
# T1 construct: 6xHis; made in house
# T1 sequence (Q14765 1-748): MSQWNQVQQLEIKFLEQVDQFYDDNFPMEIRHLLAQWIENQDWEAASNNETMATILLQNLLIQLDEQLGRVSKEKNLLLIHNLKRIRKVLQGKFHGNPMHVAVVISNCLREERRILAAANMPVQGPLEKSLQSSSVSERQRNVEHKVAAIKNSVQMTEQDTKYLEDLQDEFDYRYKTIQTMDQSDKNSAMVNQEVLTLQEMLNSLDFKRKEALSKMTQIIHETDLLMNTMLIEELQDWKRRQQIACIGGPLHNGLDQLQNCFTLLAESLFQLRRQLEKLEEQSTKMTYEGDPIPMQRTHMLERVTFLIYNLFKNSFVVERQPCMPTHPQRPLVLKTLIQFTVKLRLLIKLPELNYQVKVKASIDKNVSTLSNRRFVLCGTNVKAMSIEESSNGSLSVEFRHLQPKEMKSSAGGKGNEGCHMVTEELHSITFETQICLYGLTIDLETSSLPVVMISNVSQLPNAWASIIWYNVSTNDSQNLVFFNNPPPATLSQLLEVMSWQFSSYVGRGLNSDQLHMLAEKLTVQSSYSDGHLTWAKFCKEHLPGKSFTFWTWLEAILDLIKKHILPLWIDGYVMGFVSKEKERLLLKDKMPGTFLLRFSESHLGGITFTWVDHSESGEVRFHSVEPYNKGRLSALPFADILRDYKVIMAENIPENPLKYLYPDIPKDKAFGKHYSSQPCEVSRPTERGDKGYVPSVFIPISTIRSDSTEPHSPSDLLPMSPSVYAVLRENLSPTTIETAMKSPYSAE
# Experimental: Isothermal Titration Calorimetry
# Purification of 6xHis-tagged proteins for ITC experiments was carried out by affinity chromatography on His-Bind resin. The eluting fractions were analyzed by SDS -PAGE.
# Proteins were dialyzed against ITC buffer (10 mM Tris pH 8.0, 50 mM NaCl) using dialysi s tubing with a 50 kDa cut-off. ITC experiments were performed using a VP-ITC Micro Calorimeter (MicroCal). 6m was dissolved as a 100 mM stock in DMSO and diluted 1/1000 in ITC buffer (Tris pH 8.0 and 50 mM NaCl), resulting in a final concentration of 100 µM. 8k was dissolved as a 5 mM stock in ITC buffer and diluted 1/25 in ITC buffer with DMSO, resulting in a final concentration of 200 µM 8k. DMSO was added to a final concentration of 2% (v/v). To avoid errors caused by the detection of dilution heat, 0.1 % (v/v) DMSO for 6m or 2% (v/v) DMSO for 8k experiments was added to the buffers containing the proteins and to the reference buffer. Proteins were degassed before the experiments using a ThermoVac sample degassing station. The following conditions were used for ITC experiments: 10 µM STAT4 protein for 6m or 20 µM STAT4 protein for 8k experiments, 100 µM 6m or 200 µM 8k, 28 injections with 10 µL single injection volume, 250 s initial delay, 500 s spacing between injections, 250 µcal/s reference power, 300 rpm stirring at 25 °C for 6m or 220 rpm stirring at 25 °C for 8k. Data analysis was performed using NITPIC[1, 5] and SEDPHAT,[6] applying a low-noise integration approach. Data were fitted using a one-site binding model. Figures were generated using GUSSI.[7] Experiments were carried out in quadruplicate for 6m and triplicate
# STAT4 [1] = target: T2, STAT4 (Homo sapiens, UniProt Q14765); test: CETSA of STAT4 in lysates from NK-92 cells; format: binding; parameters: utilizing cellular lysates from the STAT4‐expressing natural killer cell line NK‐92; endogenous in cells; host or cells: NK-92 (DSMZ); conditions: 100 µM; for ΔT agg of STAT4 / T agg of STAT4 (average): CETSA, NK-92 cell lysates; for ΔT agg of STAT4: versus DMSO control; for T agg of STAT4 (average): DMSO control 48.7 ± 0.5 °C, n = 3; for Tagg (STAT4) 3 independent experiments: individual CETSA experiments, in °C (unit assumed)
# T2 sequence (Q14765 1-748): T1 sequence (Q14765 1-748)
# Experimental: (§1) NK-92 cells (DSMZ) were cultured in α-MEM containing 12.5% fetal bovine serum (FBS), 12.5% horse serum, 2 mM L-glutamine, penicillin/streptomycin and 50 U/ml IL -2. […]
# NK-92 cell lysates were prepared for CETSA experiments by washing cultured cells once with TBS and resuspending in TBS supplemented with Halt Protease In hibitor Cocktail, EDTA-free (Fisher Scientific) at 3 x 10^6 cells per 100 µl. […]
# CETSA experiments were performed essentially using the published protocol. Briefly, NK-92 cell lysates were incubated with test compound or DMSO for 15 min at room temperature (final DMSO concentration 2%). During this time, the treated lysate was divided into 10x 50 µl aliquots in 0.2 ml reaction tubes. Samples were then heated to the designated temperatures in a Veriti Pro Thermocycler (Thermo Fishe r Scientific) for 3 min, followed by 3 min incubation at room temperature, and then placed on ice. The samples were transferred to 1.5 ml tubes before centrifugation at 20,000 g for 20 min at 4 °C, to remove aggregated proteins. The soluble fractions were subsequently analyzed by Western blotting.
# (§2) The components of cell lysates from treated cells, or heat-treated lysates from CETSA, were separated by SDS-PAGE (10%), transferred to nitrocellulose membrane (Bio-Rad) and detected using monoclonal rabbit primary antibodies (Cell Signaling), α-rabbit-HRP secondary antibody (Dako) and Western Lightning Plus chemiluminescence reagent (Perkin Elmer).
# (§3) Bands were visualized using an ImageQuant system (GE Healthcare) and quantitated using ImageJ software (NIH). […]
# (§4) The sitting drop was composed of 0.1 µl protein solution and 0.1 µl reservoir solution. Plates were stored at 19°C in a protein […]
# (§5) In the first set of experiments, w e tried to crystallize STAT4 as a SUMO -STAT4 fusion protein […]
# (§6) was cleaved off as described above.
# (§7) Screening for crystallization conditions for tag-free STAT4 was performed both in the absence or presence of 1 equivalent of 6m or 6h. Since the chosen protein concentration of 3.6 mg/ml appeared to be too low, screening was repeated with a higher concentration of 6.4 mg/ml STAT4 for all conditions (corresponding to 100 µM 6m). Both the SUMO-STAT4 and the tag-free STAT4 preferentially precipitated under conditions containing polyethylene glycol. In one set of experiments, we also screened for conditions in the presence of the high-affinity peptide GY(PO3H2)LPQNID adapted from the IL-12 receptor. However, none of the conditions resulted in the growth of STAT4 crystals (Table S4).
# STAT4 [2] = target: T2, STAT4; test: IL-12-induced STAT4 Tyr693 phosphorylation in NK-92 cells (Western blot); format: cell-based; parameters: utilizing cellular lysates from the STAT4‐expressing natural killer cell line NK‐92; endogenous in cells; host or cells: NK-92 (DSMZ); conditions: treatment for 2 h (Figure S4)
# Experimental: as §1, §2, §3, §4, §5, §6, §7
"dissociation constant (ITC) relative to IC50 value in FP assays (wild‐type STAT4; Kd (ITC) higher than IC50 (FP), STAT4) [fold]",Compound,Kd (wild‐type STAT4) [µM],ΔT agg of STAT4 (STAT4 [1]) [°C],T agg of STAT4 (average) (STAT4 [1]),Tagg (STAT4) 3 independent experiments (STAT4 [1]),inhibition of IL‐12‐induced STAT4 Tyr693 phosphorylation (STAT4 [2])
,O=P(O)(O)Oc1ccc(-c2ccc3ccccc3c2)cc1F [Compound 6m],1.3 ± 0.3,,,,
,O=P(O)(O)C(F)(F)c1ccc(-c2ccc3ccccc3c2)cc1F [Compound 8a],,1.1,49.8 ± 0.1 °C and 49.8 °C,49.9 and 49.7 and 49.8,
2,Cc1cc(-c2ccc(C(F)(F)P(=O)(O)O)c(F)c2)cs1 [Compound 8k],7.1 ± 1.1,1.3,50.0 ± 0.5 °C and 50.0 °C,50.5 and 49.6 and 49.8,unable to inhibit; also recorded: does not inhibit

# Source: article PMC12087874, “Biaryl Phosphates and Phosphonates as Selective Inhibitors of the Transcription Factor STAT4” (Angewandte Chemie (International Ed. in English), 2025)
